One compound from patent US20070254938A1, “Preventive or Therapeutic Agent for Vascular Intimal Proliferative Disease” (priority 2004, published 2007) can be followed below.

The nature of assay [1]: Fasting plasma glucose levels in alloxan-induced diabetic rabbits. The assay is classed as in vivo, Japanese white rabbits. The note with it: 3 mg/kg orally once a day. Here is the method: (§1) Diabetic model animals made by administrating alloxan (50 mg/kg) into Japanese white rabbits (body weight: 2.0 to 3.3 kg) were divided into 2 groups; one was a mitiglinide-treated group (n=5) in which mitiglinide calcium hydrate (3 mg/kg) suspended in 0.5% carboxymethylcellulose was administered orally once a day before feeding for 6 weeks from the next day of alloxan-administration to the day before experimental termination, and the other was the control group (n=4) in which 0.5% carboxymethylcellulose was administered in the same way. Two weeks after the alloxan-administration, the endothelium of the right common carotid artery was scraped using a balloon catheter, and then, the incision on the vessel wall was sutured with care not to cause stenosis. The left common carotid artery was used as a side of Sham-operation (the normal group). Four (4) weeks after the operation of scraping endothelium of a blood vessel, the bilateral common carotid arteries were removed, and the intimal, medial and luminal areas of the sections of the arteries were measured using a morphometric analyzer. Fasting plasma glucose levels were measured 2 weeks after the alloxan-administration (on the day of scraping the endothelium) and 6 weeks after the alloxan-administration (on the day of removing the arteries.

In assay [2] the test system is intimal hyperplasia of the common carotid artery. Briefly: Intimal hyperplasia of a blood vessel caused by scraping endothelium of common carotid artery in alloxan-induced diabetic rabbits. The assay is classed as in vivo, Japanese white rabbits. Conditions: 3 mg/kg orally once a day for 6 weeks; arteries removed 4 weeks after scraping endothelium; compared to the control group; FIG. 1. The protocol:
Effect on Intimal Hyperplasia of a Blood vessel Caused by Scraping Endothelium of Common Carotid Artery in Rabbits
as §1, with “The left common carotid artery was used as a side of Sham-operation (the normal group).” left out

As for `O=C(O)[C@H](CC(=O)N1C[C@H]2CCCC[C@H]2C1)Cc1ccccc1` [mitiglinide calcium hydrate, bis{(2S)-2-benzyl-3-(cis-hexahydro-2-isoindolinylcarbonyl)-propionic acid}calcium dihydrate], the “influence on fasting plasma glucose level” value in assay [1] (2 weeks after alloxan-administration, FIG. 2) is recorded as “no influence”; in assay [1] (6 weeks after alloxan-administration, FIG. 3), “no influence”. Moreover, in assay [2], the “inhibitory effect on intimal hyperplasia (ratio of intimal area to medial area)” value is recorded as “significant inhibitory effect”.
